Experimental data reported in ChEMBL document CHEMBL1152000, “Anti-allergy agents. 3. Angular tricyclic ether derivatives of the 1,8-naphthyridin-2(1H)-one ring system” (1994).

What was measured:
Assay type in all cases: functional
Cavia porcellus [1] = species: Cavia porcellus; test: In vitro percent inhibition of LTD4 release from sensitized guinea pig lung fragment at dose of 3 uM
Cavia porcellus [2] = test: In vivo percent inhibition of ovalbumin induced bronchospasm in sensitized guinea pig after peroral administration at dose of 2 mg/kg for single dose; conditions: route oral
Cavia porcellus [3] = species: Cavia porcellus; test: In vitro percent inhibition of LTD4 release from sensitized guinea pig lung fragment at dose of 1 uM
Cavia porcellus [4] = test: In vivo percent inhibition of ovalbumin induced bronchospasm in sensitized guinea pig after peroral administration at dose of 1 mg/kg for single dose; conditions: route oral
Cavia porcellus [5] = test: In vivo percent inhibition of ovalbumin induced bronchospasm in sensitized guinea pig after peroral administration at dose of 0.5 mg/kg for multiple dose; conditions: route oral
Cavia porcellus [6] = test: In vivo percent inhibition of ovalbumin induced bronchospasm in sensitized guinea pig after peroral administration at dose of 0.25 mg/kg for single dose; conditions: route oral
Cavia porcellus [7] = test: In vivo percent inhibition of ovalbumin induced bronchospasm in sensitized guinea pig after peroral administration at dose of 0.5 mg/kg for single dose; conditions: route oral
Cavia porcellus [8] = species: Cavia porcellus; test: In vitro percent inhibition of LTD4 release from sensitized guinea pig lung fragment at dose of 10 uM
Cavia porcellus [9] = test: In vivo percent inhibition of ovalbumin induced bronchospasm in sensitized guinea pig after peroral administration at dose of 12 mg/kg for single dose; conditions: route oral
Cavia porcellus [10] = test: In vivo percent inhibition of ovalbumin induced bronchospasm in sensitized guinea pig after peroral administration at dose of 3 mg/kg for single dose; conditions: route oral
Cavia porcellus [11] = test: In vivo percent inhibition of ovalbumin induced bronchospasm in sensitized guinea pig after peroral administration at dose of 6.25 mg/kg for multiple dose; conditions: route oral
Cavia porcellus [12] = test: In vivo percent inhibition of ovalbumin induced bronchospasm in sensitized guinea pig after peroral administration at dose of 12.5 mg/kg for multiple dose; conditions: route oral
Cavia porcellus [13] = test: In vivo percent inhibition of ovalbumin induced bronchospasm in sensitized guinea pig after peroral administration at dose of 25 mg/kg for single dose; conditions: route oral
Cavia porcellus [14] = test: In vivo percent inhibition of ovalbumin induced bronchospasm in sensitized guinea pig after peroral administration at dose of 10 mg/kg for single dose; conditions: route oral
Cavia porcellus [15] = test: In vivo percent inhibition of ovalbumin induced bronchospasm in sensitized guinea pig after peroral administration at dose of 2 mg/kg for multiple dose; conditions: route oral
Cavia porcellus [16] = test: In vivo percent inhibition of ovalbumin induced bronchospasm in sensitized guinea pig after peroral administration at dose of 1 mg/kg for multiple dose; conditions: route oral
Cavia porcellus [17] = test: In vivo percent inhibition of ovalbumin induced bronchospasm in sensitized guinea pig after peroral administration at dose of 3.13 mg/kg for multiple dose; conditions: route oral
Cavia porcellus [18] = test: In vivo percent inhibition of ovalbumin induced bronchospasm in sensitized guinea pig after peroral administration at dose of 5 mg/kg for single dose; conditions: route oral

## COc1ccc(-n2c(=O)c3c(c4cccnc42)OCC3)cc1
Cavia porcellus [1]
  inhibition at 3 µM: 17%

## CC1Cc2c(c3cccnc3n(-c3cccc(Cl)c3)c2=O)O1 (stereo unspecified)
Cavia porcellus [2]
  inhibition in vivo at 2 mg/kg: 38%
Cavia porcellus [3]
  inhibition at 1 µM: 64%

## O=c1c2c(c3cccnc3n1-c1cccc(Cl)c1)OCCCC2
Cavia porcellus [4]
  inhibition in vivo at 1 mg/kg: 74%
Cavia porcellus [5]
  inhibition in vivo at 0.5 mg/kg: 50%
Cavia porcellus [2]
  inhibition in vivo at 2 mg/kg: 85%
Cavia porcellus [3]
  inhibition at 1 µM: 100%
Cavia porcellus [6]
  inhibition in vivo at 0.25 mg/kg: 27%
Cavia porcellus [1]
  inhibition at 3 µM: 62%
Cavia porcellus [7]
  inhibition in vivo at 0.5 mg/kg: 62%

## Cc1ccc(-n2c(=O)c3c(c4cccnc42)OCC3)cc1
Cavia porcellus [8]
  inhibition at 10 µM: 59%
Cavia porcellus [1]
  inhibition at 3 µM: 28%

## O=c1c2c(c3cccnc3n1-c1ccccc1)OCC2
Cavia porcellus [9]
  inhibition in vivo at 12 mg/kg: 86%
Cavia porcellus [8]
  inhibition at 10 µM: 72%
Cavia porcellus [10]
  inhibition in vivo at 3 mg/kg: 42%
Cavia porcellus [11]
  inhibition in vivo at 6.25 mg/kg: 65%
Cavia porcellus [12]
  inhibition in vivo at 12.5 mg/kg: 90%
Cavia porcellus [1]
  inhibition at 3 µM: 54%
Cavia porcellus [13]
  inhibition in vivo at 25 mg/kg: 79%

## COc1ccc(-n2c(=O)c3c(c4cccnc42)OCCC3)cc1
Cavia porcellus [1]
  inhibition at 3 µM: 28%

## O=c1c2c(c3cccnc3n1-c1ccc(Cl)cc1)OCC2
Cavia porcellus [1]
  inhibition at 3 µM: 33%

## O=c1c2c(c3cccnc3n1-c1ccc(Cl)cc1)OCCC2
Cavia porcellus [1]
  inhibition at 3 µM: 33%

## CC1Cc2c(c3cccnc3n(-c3ccccc3)c2=O)O1 (stereo unspecified)
Cavia porcellus [8]
  inhibition at 10 µM: 60%

## Cc1ccc(-n2c(=O)c3c(c4cccnc42)OCCC3)cc1
Cavia porcellus [1]
  inhibition at 3 µM: 27%

## O=c1c2c(c3cccnc3n1-c1ccccc1)OCCCC2
Cavia porcellus [2]
  inhibition in vivo at 2 mg/kg: 71%
Cavia porcellus [1]
  inhibition at 3 µM: 75%

## O=c1c2c(c3cccnc3n1-c1cccc(Cl)c1)OCC2
Cavia porcellus [14]
  inhibition in vivo at 10 mg/kg: 93%
Cavia porcellus [2]
  inhibition in vivo at 2 mg/kg: 87%
Cavia porcellus [1]
  inhibition at 3 µM: 71%
Cavia porcellus [15]
  inhibition in vivo at 2 mg/kg: 62%
Cavia porcellus [16]
  inhibition in vivo at 1 mg/kg: 21%

## O=c1c2c(c3cccnc3n1-c1ccc(Cl)c(Cl)c1)OCCC2
Cavia porcellus [1]
  inhibition at 3 µM: 48%

## O=c1c2c(c3cccnc3n1-c1ccccc1)OCCC2
Cavia porcellus [8]
  inhibition at 10 µM: 62%
Cavia porcellus [11]
  inhibition in vivo at 6.25 mg/kg: 51%
Cavia porcellus [12]
  inhibition in vivo at 12.5 mg/kg: 43%
Cavia porcellus [1]
  inhibition at 3 µM: 26%
Cavia porcellus [13]
  inhibition in vivo at 25 mg/kg: 62%
Cavia porcellus [17]
  inhibition in vivo at 3.13 mg/kg: 20%

## O=c1c2c(c3cccnc3n1-c1ccc(Cl)c(Cl)c1)OCC2
Cavia porcellus [8]
  inhibition at 10 µM: 63%
Cavia porcellus [18]
  inhibition in vivo at 5 mg/kg: 0%
Cavia porcellus [1]
  inhibition at 3 µM: 62%
